# Measured values as given in article PMC4747952, “Development of TASP0410457 (TASP457), a novel dihydroquinolinone derivative as a PET radioligand for central histamine H3 receptors” (EJNMMI Research, 2016).
# Tests used:
# rat H3R = target: T1, rat H3R (Rattus norvegicus, UniProt Q9QYN8); assay: In vitro binding to H3Rs, rat cerebral cortex membranes, [^3H]N-α-methylhistamine; conditions: 1 nM [^3H]N-α-methylhistamine, geometric mean, n = 3, read-out: Affinity for H3Rs Rat, IC50
# T1 construct: Rat cerebral cortex and monkey frontal cortex were dissected; from tissue; host or cells: rat cerebral cortex membranes
# Description: (§1) Rat cerebral cortex and monkey frontal cortex were dissected, homogenized with 50 mM Tris buffer (pH 7.4) containing 5 mM EDTA and Protease Inhibitor Cocktail Tablets (Roche Diagnostics, Indianapolis, IN) and centrifuged at 48,000×g for 15 min at 4 °C. The pellets were then suspended in binding buffer (50 mM Tris containing 5 mM EDTA, pH 7.4) and stored at −80 °C as membrane preparations.
# (§2) The membrane preparations were thawed and incubated in the binding buffer containing 0.1 % bovine serum albumin, 1 nM [^3H]N-α-methylhistamine (PerkinElmer, Waltham, MA) with various concentrations of a dihydroquinolinone derivative (i.e., test compound) at 25 °C for 1 h. The reaction was terminated by rapid filtration through 96-well GF/C filter plates (PerkinElmer) presoaked with 0.5 % polyethyleneimine (Wako, Osaka, Japan). After washes with ice-cold binding buffer, the plates were dried and filled with Microscint-o (PerkinElmer). The radioactivity retained on the filters was counted using a TopCount NXT (PerkinElmer). Total and nonspecific radioligand binding was determined by reaction without and with 10 μM thioperamide and clobenpropit, respectively. The specific radioligand binding was then calculated by subtracting the nonspecific binding from the total binding. The IC50 value for inhibition of the radioligand binding by the test compound was determined using a nonlinear fit of the concentration-response curve for each test compound using SAS 9.2 (SAS Institute Inc., Cary, NC). Data were expressed as the geometric means of IC50 values from three independent experiments run in duplicate.
# K+ channel KATP = assay: Off-target binding (Cerep); design: unit of the concentration uncertain
# From the text: (§3) Off-target binding of compounds assessed using an in-house assay (M4) and a commercial battery (all others) (Cerep, Celle L'Evescault, France).
# (§4) Concentration % Inhibition Concentration % Inhibition Concentration % Inhibition […]
# (§5) *1α -amino-3-hydroxy-5-methyl-4-isoxazolepropionic acid receptor; *2N-methyl-D-aspartate receptor; *3Strychnine-insensitive glycine-binding module of NMDA receptor; *4Phencyclidine-binding site of NMDA receptor; *5ATP-sensitive potassium channel; *6Voltage-dependent potassium channel; *7small conductance calcium-activated potassium channel; *85-hydroxytryptamine 1A receptor
# Glutamate NMDA = assay: Off-target binding (Cerep); design: unit of the concentration uncertain
# From the text: as §3, §4, §5
# [1] = tested on: Glutamate Glycine (Strychnine-insensitive glycine-binding module of NMDA receptor); assay: Off-target binding (Cerep); design: unit of the concentration uncertain
# From the text: as §3, §4, §5
# [2] = tested on: Glutamate PCP (Phencyclidine-binding site of NMDA receptor); assay: Off-target binding (Cerep); design: unit of the concentration uncertain
# From the text: as §3, §4, §5
# K+ channel KV = assay: Off-target binding (Cerep); design: unit of the concentration uncertain
# From the text: as §3, §4, §5
# Glutamate AMPA = assay: Off-target binding (Cerep); design: unit of the concentration uncertain
# From the text: as §3, §4, §5
# K+ channel SKCa = assay: Off-target binding (Cerep); design: unit of the concentration uncertain
# From the text: as §3, §4, §5
# monkey H3Rs = target: T2, monkey H3Rs (Macaca mulatta, UniProt Q865E1); assay: In vitro binding to H3Rs, monkey frontal cortex membranes, [^3H]N-α-methylhistamine; conditions: 1 nM [^3H]N-α-methylhistamine, geometric mean, n = 3, read-out: Affinity for H3Rs Monkey, IC50
# T2 construct: Rat cerebral cortex and monkey frontal cortex were dissected; from tissue; host or cells: monkey frontal cortex membranes
# Description: as §1, §2
# [3] = Ex vivo pharmacokinetic assessment in the rat brain using LC-MS/MS; conditions: 10 μg/kg intravenous, n = 3
# Description: The rats were decapitated at 5, 15, 30, 60, and 120 min after intravenous administration of TASP0390136, TASP0390174, TASP0410426, TASP0410427, TASP0410457, or TASP0434988 at a dose of 10 μg/kg. The cerebellum and forebrain, including the medial prefrontal and cingulate cortices and anterior striatum, were dissected and homogenized with four volumes of distilled water. The homogenates were protein-precipitated with methanol/acetonitrile (1:9) and were centrifuged at 3974×g for 10 min at 4 °C. The resultant supernatants were injected into an HPLC (Shimadzu-20AD, Shimadzu, Kyoto, Japan) and a tandem mass spectrometer (API4000, AB SCIEX, Framingham, MA) using a Shim-pak XR-ODS column (3.0 × 30 mm, Shimadzu) at 50 °C. TASP0410457 was eluted with a mobile phase consisting of 10 mM of ammonium acetate/acetonitrile with a linear gradient at a flow rate of 1.3 mL/min, and ammonium formate instead of ammonium acetate was used for eluting the other five compounds. […] The eluted TASP0390136, TASP0390174, TASP0410426, TASP0410427, TASP0410457, and TASP0434988 were ionized using an electrospray interface and were detected using reaction monitoring of the transitions of m/z 395 to 91, 395 to 98, 413 to 98, 425 to 98, 408 to 138, and 407 to 138, respectively. A dihydroquinolinone compound (6-[(1-cyclobutylpiperidin-4-yl)oxy]-1-(3,5-difluorophenyl)-3,4-dihydroquinolin-2(1H)-one) was used as an internal standard for all assays. The lower qualification limit for TASP0410457 was 0.05 ng/g tissue, and the limit for the other five compounds was 0.15 ng/g tissue. Data were expressed as standardized uptake values (SUVs) calculated as follows: SUV=tissueconcentrationg/g×bodyweightg/injecteddoseg
# [4] = design: method as in K. Kawamura, personal communication, 2015; conditions: mice; 30 min after intravenous injection; pilot assays; ref K. Kawamura, personal communication, 2015; cited from earlier work
# [5] = Concentration 10 (unit uncertain)
# [6] = Concentration 1 (unit uncertain)
# T1 sequence (Q9QYN8 whole entry): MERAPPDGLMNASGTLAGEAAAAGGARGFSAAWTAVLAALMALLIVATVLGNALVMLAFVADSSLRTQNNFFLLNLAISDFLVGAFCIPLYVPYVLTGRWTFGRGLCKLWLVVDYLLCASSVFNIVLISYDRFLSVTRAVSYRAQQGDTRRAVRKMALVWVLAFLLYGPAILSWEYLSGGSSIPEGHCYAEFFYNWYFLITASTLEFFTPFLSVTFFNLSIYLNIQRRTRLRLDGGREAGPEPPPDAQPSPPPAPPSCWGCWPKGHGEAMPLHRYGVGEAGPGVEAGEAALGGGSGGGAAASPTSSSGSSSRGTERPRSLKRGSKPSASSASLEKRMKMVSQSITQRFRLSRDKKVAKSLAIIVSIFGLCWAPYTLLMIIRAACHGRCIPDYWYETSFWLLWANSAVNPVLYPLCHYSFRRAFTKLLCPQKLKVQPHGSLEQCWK
# T2 sequence (Q865E1 1-445): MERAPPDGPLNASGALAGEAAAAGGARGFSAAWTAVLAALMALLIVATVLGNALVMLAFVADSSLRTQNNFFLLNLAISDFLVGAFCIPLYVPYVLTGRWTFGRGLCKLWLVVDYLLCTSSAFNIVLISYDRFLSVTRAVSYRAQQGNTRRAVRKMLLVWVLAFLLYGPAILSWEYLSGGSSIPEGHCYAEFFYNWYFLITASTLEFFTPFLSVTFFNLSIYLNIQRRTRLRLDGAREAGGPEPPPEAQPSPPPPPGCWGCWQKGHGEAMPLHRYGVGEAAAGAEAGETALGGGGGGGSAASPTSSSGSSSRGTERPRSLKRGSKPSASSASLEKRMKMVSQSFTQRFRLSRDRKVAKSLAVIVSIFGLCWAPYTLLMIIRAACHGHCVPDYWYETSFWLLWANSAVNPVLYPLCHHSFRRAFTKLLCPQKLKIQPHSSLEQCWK
Structure (SMILES),IC50 (rat H3R) [nM],% Inhibition (K+ channel KATP; [5]) [%],% Inhibition (Glutamate NMDA; [5]) [%],"% Inhibition [1, 5] [%]","% Inhibition [2, 5] [%]",% Inhibition (K+ channel KV; [5]) [%],% Inhibition (Glutamate AMPA; [5]) [%],% Inhibition (K+ channel SKCa; [5]) [%],IC50 (monkey H3Rs) [nM],Mean peak concentration in the forebrain expressed as SUV [3] [SUV],% Inhibition (K+ channel KATP; [6]) [%],% Inhibition (Glutamate NMDA; [6]) [%],"% Inhibition [1, 6] [%]","% Inhibition [2, 6] [%]",% Inhibition (K+ channel KV; [6]) [%],% Inhibition (Glutamate AMPA; [6]) [%],% Inhibition (K+ channel SKCa; [6]) [%],metabolite share of radioactivity in the brain [4]
"COc1ccc(N2C(=O)CCc3cc(OCCCN4CCC[C@H]4C)ccc32)cc1 [TASP0390136, 1-(4-methoxyphenyl)-6-{3-[(2R)-2-methylpyrrolidin-1-yl]propoxy}-3,4-dihydroquinolin-2(1H)-one]",2.74,22,-2,12,-2,-15,-18,7,1.06,0.30,,,,,,,,
"COc1ccc(N2C(=O)CCc3cc(OC4CCN(C5CCC5)CC4)ccc32)cn1 [TASP0410457, 6-[(1-Cyclobutylpiperidin-4-yl)oxy]-1-(6-methoxypyridin-3-yl)-3,4-dihydroquinolin-2(1H)-one]",2.34,5,11,-5,-2,-11,1,-1,1.8,0.85,,,,,,,,
"COc1ccc(N2C(=O)CCc3cc(OC4CCN(C5CCC5)CC4)ccc32)cc1 [TASP0434988, 6-[(1-cyclobutylpiperidin-4-yl)oxy]-1-(4-methoxyphenyl)-3,4-dihydroquinolin-2(1H)-one]",0.783,,,,,,,,0.565,0.58,-4,-7,-8,9,-1,0,-2,
[11CH3]Oc1ccc(N2C(=O)CCc3cc(OC4CCN(C5CCC5)CC4)ccc32)cn1 [[^11C]TASP0410457],,,,,,,,,,,,,,,,,,approximately 50%
